From US20250136722A1, “CYTOTOXICITY TARGETING CHIMERAS” (GLAXOSMITHKLINE INTELLECTUAL PROPERTY DEVELOPMENT LIMITED, priority 2021, published 2025) come the findings set out here.

The experiment addresses T1, CHOK1 cells engineered to overexpress human CCR2 (Homo sapiens, UniProt P41597).
T1 construct: expressed in transfected cells; host or cells: CHOK1 cells
The experiment in a line: Antibody dependent cellular cytotoxicity (ADCC) reporter assay (Example 199). The class given is cell-based. As to conditions: with anti-cotinine antibody SEQ ID NO: 11/12; CHOK1-human CCR2 target cells, Jurkat FcγRIIIa NFAT-luciferase reporter cells; 12-18 hours; read-out: ADCC Reporter Assay pEC50 (converted). The method, boiled down:
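Potency is reported as pEC50 from a nonlinear fit, averaged over runs, using luciferase signal divided by that of compound-free wells. The readout comes from NFAT-luciferase Jurkat cells expressing FcγRIIIa, mixed for 12–18 h with human CCR2-overexpressing CHOK1 cells, 1 pM–10 μM ARM compound and 0.01–200 μg/mL Fc-enhanced anti-cotinine IgG1.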

For `CC(C)N(C)[C@@H]1CC[C@H](N2CC[C@H](Nc3ncnc4ccc(C(F)(F)F)cc34)C2=O)[C@H](NC(=O)C2CCN(c3cnc(NCCOCCOCCNC(=O)[C@H]4CC(=O)N(C)[C@@H]4c4cccnc4)cn3)CC2)C1` [Example 162, N-((1R,2S,5R)-5-(Isopropyl(methyl)amino)-2-((S)-2-oxo-3-((6-(trifluoromethyl)quinazolin-4-yl)amino)pyrrolidin-1-yl)cyclohexyl)-1-(5-((2-(2-(2-((2S,3S)-1-methyl-5-oxo-2-(pyridin-3-yl)pyrrolidine-3-carboxamido)ethoxy)ethoxy)ethyl)amino)pyrazin-2-yl)piperidine-4-carboxamide], the EC50 is 1.58 nM.

As for `CC(C)N(C)[C@@H]1CC[C@H](N2CC[C@H](Nc3ncnc4ccc(C(F)(F)F)cc34)C2=O)[C@H](NC(=O)CCCCCCCCC(=O)NCCCCCCCCCCNC(=O)[C@H]2CC(=O)N(C)[C@@H]2c2cccnc2)C1` [Example 165, N^1-((1R,2S,5R)-5-(isopropyl(methyl)amino)-2-((S)-2-oxo-3-((6-(trifluoromethyl)quinazolin-4-yl)amino)pyrrolidin-1-yl)cyclohexyl)-N^10-(10-((2S,3S)-1-methyl-5-oxo-2-(pyridin-3-yl)pyrrolidine-3-carboxamido)decyl)decanediamide], the EC50 is 1.26 nM.

`CC(C)N(C)[C@@H]1CC[C@H](N2CC[C@H](Nc3ncnc4ccc(C(F)(F)F)cc34)C2=O)[C@H](NC(=O)CCOCCC(=O)N2CCC3(CCC(C(=O)NCCNC(=O)[C@H]4CC(=O)N(C)[C@@H]4c4cccnc4)CC3)CC2)C1` [Example 167, 3-(3-(3-(((1R,2S,5R)-5-(Isopropyl(methyl)amino)-2-((S)-2-oxo-3-((6-(trifluoromethyl)quinazolin-4-yl)amino)pyrrolidin-1-yl)cyclohexyl)amino)-3-oxopropoxy)propanoyl)-N-(2-((2S,3S)-1-methyl-5-oxo-2-(pyridin-3-yl)pyrrolidine-3-carboxamido)ethyl)-3-azaspiro[5.5]undecane-9-carboxamide]: the EC50 was 1.26 nM.

For `CC(C)N(C)[C@@H]1CC[C@H](N2CC[C@H](Nc3ncnc4ccc(C(F)(F)F)cc34)C2=O)[C@H](NC(=O)[C@H]2CC[C@@H](NC(=O)C3CCC4(CC3)CCN(CCNC(=O)[C@H]3CC(=O)N(C)[C@@H]3c3cccnc3)CC4)CC2)C1` [Example 170, N-((1S,4s)-4-(((1R,2S,5R)-5-(Isopropyl(methyl)amino)-2-((S)-2-oxo-3-((6-(trifluoromethyl)quinazolin-4-yl)amino)pyrrolidin-1-yl)cyclohexyl)carbamoyl)cyclohexyl)-3-(2-((2S,3S)-1-methyl-5-oxo-2-(pyridin-3-yl)pyrrolidine-3-carboxamido)ethyl)-3-azaspiro[5.5]undecane-9-carboxamide], the EC50 was 1 nM.

Take `CC(C)N(C)[C@@H]1CC[C@H](N2CC[C@H](Nc3ncnc4ccc(C(F)(F)F)cc34)C2=O)[C@H](NC(=O)C2CCN(C3CCN(C(=O)CCOCCOCCNC(=O)[C@H]4CC(=O)N(C)[C@@H]4c4cccnc4)CC3)CC2)C1` [Example 172, N-((1R,2S,5R)-5-(Isopropyl(methyl)amino)-2-((S)-2-oxo-3-((6-(trifluoromethyl)quinazolin-4-yl)amino)pyrrolidin-1-yl)cyclohexyl)-1′-(3-(2-(2-((2S,3S)-1-methyl-5-oxo-2-(pyridin-3-yl)pyrrolidine-3-carboxamido)ethoxy)ethoxy)propanoyl)-[1,4′-bipiperidine]-4-carboxamide]: the EC50 is 0.794 nM.
